This is an account of results in patent US11666558B2, “Methods of treating intraocular pressure with activators of Tie-2” (EyePoint Pharmaceuticals, Inc., priority 2015, dated 2023).

One experiment addresses HPTP-β (Homo sapiens (Human), UniProt P23467). Nature of the experiment: HPTP-β inhibitory activity (IC50). In kind it is biochemical.
A further experiment deals with intraocular pressure. The experiment in a line: Intraocular pressure, Compound 1 with sham or ranibizumab, Months 1-3 (FIG. 2, TABLE 1). In kind it is in vivo. Here is the method:
The difference in IOP was determined relative to a pre-treatment baseline (Base) at months 1, 2, and 3 (M1-M3). Intraocular pressure was determined in the study eye in millimeters of mercury (mmHg). […] The difference in IOP was determined relative to a pre-treatment Baseline at Months 1, 2 and 3. Intraocularpressure was determined in the study eye/fellow eye in mmHg.

pIC50: −log10 of the molar value.

Sequence of HPTP-β (P23467 23-1997): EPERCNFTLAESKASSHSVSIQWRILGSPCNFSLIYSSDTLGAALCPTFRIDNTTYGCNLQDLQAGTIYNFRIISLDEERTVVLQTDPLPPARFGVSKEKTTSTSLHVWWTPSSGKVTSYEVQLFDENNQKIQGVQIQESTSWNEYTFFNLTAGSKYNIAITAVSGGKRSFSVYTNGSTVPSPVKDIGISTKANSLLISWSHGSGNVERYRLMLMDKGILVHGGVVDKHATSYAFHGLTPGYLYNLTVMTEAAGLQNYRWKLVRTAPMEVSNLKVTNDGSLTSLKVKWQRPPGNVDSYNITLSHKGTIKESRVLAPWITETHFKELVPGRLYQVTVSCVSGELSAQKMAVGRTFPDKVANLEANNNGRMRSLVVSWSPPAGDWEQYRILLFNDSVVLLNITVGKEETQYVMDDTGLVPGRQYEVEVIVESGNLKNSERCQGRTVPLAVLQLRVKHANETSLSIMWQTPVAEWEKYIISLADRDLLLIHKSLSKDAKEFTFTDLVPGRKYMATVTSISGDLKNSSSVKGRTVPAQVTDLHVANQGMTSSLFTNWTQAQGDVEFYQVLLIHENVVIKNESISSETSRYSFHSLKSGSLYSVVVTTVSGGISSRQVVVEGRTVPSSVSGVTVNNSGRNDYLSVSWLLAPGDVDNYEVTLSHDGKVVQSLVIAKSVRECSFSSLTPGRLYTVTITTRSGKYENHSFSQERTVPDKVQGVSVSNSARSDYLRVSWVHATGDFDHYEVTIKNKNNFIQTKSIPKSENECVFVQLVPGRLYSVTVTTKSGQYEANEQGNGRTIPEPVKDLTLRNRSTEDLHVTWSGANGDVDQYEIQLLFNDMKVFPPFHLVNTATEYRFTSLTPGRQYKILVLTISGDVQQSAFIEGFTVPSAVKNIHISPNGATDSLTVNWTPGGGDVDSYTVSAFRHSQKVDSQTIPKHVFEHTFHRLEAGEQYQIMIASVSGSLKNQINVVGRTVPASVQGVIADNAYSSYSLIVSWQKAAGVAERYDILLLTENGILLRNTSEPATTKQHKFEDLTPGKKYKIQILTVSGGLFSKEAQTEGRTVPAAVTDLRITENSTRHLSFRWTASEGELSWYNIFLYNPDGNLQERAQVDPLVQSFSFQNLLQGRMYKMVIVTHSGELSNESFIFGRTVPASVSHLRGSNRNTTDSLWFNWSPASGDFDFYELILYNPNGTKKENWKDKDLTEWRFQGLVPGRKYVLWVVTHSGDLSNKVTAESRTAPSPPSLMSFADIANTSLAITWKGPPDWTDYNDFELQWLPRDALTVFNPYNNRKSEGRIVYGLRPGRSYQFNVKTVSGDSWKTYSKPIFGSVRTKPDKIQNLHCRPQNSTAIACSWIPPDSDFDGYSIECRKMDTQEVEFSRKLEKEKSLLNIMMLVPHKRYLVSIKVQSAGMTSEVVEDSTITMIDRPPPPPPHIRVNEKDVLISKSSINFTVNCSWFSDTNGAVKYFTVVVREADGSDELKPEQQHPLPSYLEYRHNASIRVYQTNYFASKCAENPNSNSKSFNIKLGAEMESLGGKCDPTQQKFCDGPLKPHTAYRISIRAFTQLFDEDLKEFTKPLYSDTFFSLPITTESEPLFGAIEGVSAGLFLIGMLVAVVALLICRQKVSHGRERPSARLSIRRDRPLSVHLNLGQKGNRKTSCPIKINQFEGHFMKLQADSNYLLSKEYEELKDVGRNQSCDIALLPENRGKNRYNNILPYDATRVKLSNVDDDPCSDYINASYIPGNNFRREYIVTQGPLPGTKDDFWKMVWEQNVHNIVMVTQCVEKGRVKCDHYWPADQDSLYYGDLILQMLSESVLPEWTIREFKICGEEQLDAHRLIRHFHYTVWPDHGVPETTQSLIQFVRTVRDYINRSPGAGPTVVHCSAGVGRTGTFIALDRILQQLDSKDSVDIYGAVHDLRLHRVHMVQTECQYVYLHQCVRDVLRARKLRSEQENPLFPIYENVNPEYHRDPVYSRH

Compound `CCc1csc([C@H](Cc2ccc(NS(=O)(=O)O)cc2)NC(=O)[C@H](CNC(=O)OC(C)(C)C)Cc2ccccc2)n1` [AA3] had a pIC50 against HPTP-β of 7.51.
For the compound `COC(=O)N[C@@H](Cc1ccccc1)C(=O)N[C@@H](Cc1ccc(NS(=O)(=O)O)cc1)c1nc(-c2ccccc2)cs1` [AA21], at HPTP-β, the pIC50 was above 11.70.
The compound `CCc1csc([C@H](Cc2ccc(NS(=O)(=O)O)cc2)NC(=O)[C@H](CC(C)C)NC(=O)OC(C)(C)C)n1` [AA42] gave a pIC50 on HPTP-β of 8.22.
Still for that read-out and setting: next, `CC(C)(C)OC(=O)N[C@@H](Cc1ccc(NS(=O)(=O)O)cc1)c1csc(OC(=O)C(C)(C)C)n1` [AA71]: 6.26.
In the case of ranibizumab [placebo + RBZ], the “IOP, fellow eye” value in the experiment with intraocular pressure (Baseline (pre-treatment)) is 15.8 mmHg; in the experiment on intraocular pressure (Month 1), 15.5 mmHg; in the experiment with intraocular pressure (Month 2) it was 15.5 mmHg; in the experiment with intraocular pressure (Month 3), 15.7 mmHg. In addition, the “IOP, study eye” value was 15.2 mmHg in the experiment on intraocular pressure (Baseline (pre-treatment)), 15.0 mmHg in the experiment with intraocular pressure (Month 1), 15.0 mmHg with intraocular pressure (Month 2) and 15.3 mmHg with intraocular pressure (Month 3).
